Drawing on patent publication US8546377B2 (AbbVie Inc., priority 2009, dated 2013), this text covers EC50 and Emax for 25 compounds.

The structures appear in SMILES notation. Like-named read-outs stand apart in the source and are kept apart here.

For one assay, the target named is T1, 5HT2B receptors (Homo sapiens, UniProt P41595).
T1 construct: expressed in transfected cells; host or cells: CHO-K1 cells
In words: Human 5-HT2B functional assay in CHO-K1 cells (calcium flux, FLIPR). In kind it is cell-based. The method, boiled down: (§1)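 Frozen CHO-K1 cells over-expressing receptor, serum-starved overnight, loaded with Ca4 dye plus 2.5 mM probenecid for 60 min at room temperature. FLIPR fluorescence (ex 480/em 530 nm, 25° C) recorded 3 min after compound addition; 6-point 1:10 series from 10 μM, 0.2% DMSO. Response normalized to serotonin, 4-parameter fit gives EC50; Emax as % of serotonin.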
On the technique in general: Calcium flux is commonly read through the fluorescence of an indicator in the cells.

For a further assay, the target named is T2, 5HT2C receptors (Homo sapiens, UniProt P28335).
T2 sequence (P28335 33-458): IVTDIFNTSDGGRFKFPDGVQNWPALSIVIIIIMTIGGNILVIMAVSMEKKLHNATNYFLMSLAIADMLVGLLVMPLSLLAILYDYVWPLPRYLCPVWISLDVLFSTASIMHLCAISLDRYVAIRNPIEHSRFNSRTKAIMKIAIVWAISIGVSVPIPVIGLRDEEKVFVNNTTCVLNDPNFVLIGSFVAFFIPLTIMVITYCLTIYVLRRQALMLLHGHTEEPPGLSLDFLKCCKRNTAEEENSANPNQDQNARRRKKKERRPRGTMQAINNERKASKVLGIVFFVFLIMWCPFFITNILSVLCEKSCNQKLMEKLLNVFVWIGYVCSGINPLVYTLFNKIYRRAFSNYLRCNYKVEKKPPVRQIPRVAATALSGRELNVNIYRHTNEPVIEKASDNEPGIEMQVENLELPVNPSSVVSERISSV
In words: Human 5-HT2C functional assay in CHO-K1 cells (calcium flux, FLIPR). It is filed as cell-based. The arrangement: expressed in transfected cells; host or cells: CHO-K1 cells. Put shortly: as §1

Setting [1] is: CHO-K1, read-out: Emax (%), 5-HT2c Agonist Activity, CHO-K1 cells, percentage relative to the effect of serotonin.
[2] abbreviates: CHO-K1, read-out: Emax (%), 5-HT2B Agonist Activity.
[3] abbreviates: CHO-K1 cells over-expressing 5HT2B, calcium flux, read-out: EC50 (μM), 5-HT2B Agonist Activity.
[4] abbreviates: CHO-K1 cells over-expressing 5HT2C, calcium flux, read-out: EC50 (μM), 5-HT2c Agonist Activity.
The mark [5] stands for this setting: CHO-K1 cells, percentage relative to the effect of serotonin, read-out: Emax (%), 5-HT2c Agonist Activity.
Where [6] appears, read: CHO-K1, read-out: Emax (%), 5-HT2c Agonist Activity.
Setting [7] is: CHO-K1 cells, percentage relative to the effect of serotonin, read-out: Emax (%), 5-HT2B Agonist Activity.

T1 sequence (P41595 whole entry): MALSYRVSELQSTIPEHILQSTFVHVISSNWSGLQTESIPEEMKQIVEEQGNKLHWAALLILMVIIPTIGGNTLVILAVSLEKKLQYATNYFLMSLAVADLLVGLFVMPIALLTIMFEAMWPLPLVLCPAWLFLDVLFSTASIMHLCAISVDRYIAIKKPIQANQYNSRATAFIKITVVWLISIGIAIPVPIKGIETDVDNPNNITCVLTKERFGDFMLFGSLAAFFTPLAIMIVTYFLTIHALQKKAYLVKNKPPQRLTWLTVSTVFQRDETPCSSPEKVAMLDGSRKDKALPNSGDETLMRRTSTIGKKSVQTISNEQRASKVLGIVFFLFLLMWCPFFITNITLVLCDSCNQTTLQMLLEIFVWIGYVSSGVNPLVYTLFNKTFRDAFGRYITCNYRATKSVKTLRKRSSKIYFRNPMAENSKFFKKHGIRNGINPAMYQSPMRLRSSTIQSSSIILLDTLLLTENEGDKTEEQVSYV

For `CN1CCN2c3cccc(F)c3NC(=O)C[C@H]2C1` [Example 88, (4aS)-8-fluoro-3-methyl-1,2,3,4,4a,5-hexahydropyrazino[1,2-a][1,5]benzodiazepin-6(7H)-one], the EC50 – broadly, the concentration that produces a half-maximal response – on 5HT2B receptors was greater than 10 µM; at 5HT2C receptors, 0.03 µM. For the same compound, at 5HT2C receptors (setting [1]), the Emax (as a rule, the size of the effect at its maximum, as opposed to the concentration needed) is greater than 120%.

As for `[2H]c1cc2c(cc1[2H])N1CCNC[C@@H]1CCO2` [Example 267, (4aS)-(9,10-^2H2)-2,3,4,4a,5,6-hexahydro-1H-pyrazino[2,1-d][1,5]benzoxazepine], the concentration for a half-maximal effect (EC50) stood at 0.2 µM on 5HT2B receptors and 0.005 µM at 5HT2C receptors. Also, the figures for the Emax at 5HT2B receptors (setting [2]) and at 5HT2C receptors (setting [1]) were 20% and 90%, respectively.

With `O=C1CC2CNCCN2c2cc(OCc3ccccc3F)ccc2N1` (stereo not shown) [Example 155, 10-[(2-fluorobenzyl)oxy]-1,2,3,4,4a,5-hexahydropyrazino[1,2-a][1,5]benzodiazepin-6(7H)-one], the results for the EC50 at 5HT2B receptors (setting [3]) and on 5HT2C receptors (setting [4]) were greater than 10 µM and 0.0384 µM, respectively. The Emax on 5HT2C receptors (setting [5]) was greater than 120%.

With `Brc1cccc2c1OCC[C@H]1CNCCN21` [Example 236, (4aS)-8-bromo-2,3,4,4a,5,6-hexahydro-1H-pyrazino[2,1-d][1,5]benzoxazepine], the EC50 came to 0.01 µM at 5HT2B receptors and 0.002 µM on 5HT2C receptors. In addition, the Emax on 5HT2B receptors (setting [2]) is 10%; on 5HT2C receptors (setting [1]), 100%.

In the case of `O=C1C[C@H]2CNCCN2c2c(F)cccc2N1` [Example 86, (4aS)-11-fluoro-1,2,3,4,4a,5-hexahydropyrazino[1,2-a][1,5]benzodiazepin-6(7H)-one], the EC50 on 5HT2B receptors is greater than 10 µM; at 5HT2C receptors it was 0.008 µM. Besides, at 5HT2C receptors (setting [1]), the Emax was greater than 120%.

For `O=C1CC2CNCCN2c2cc(-c3cccc(F)c3)ccc2N1` (stereo not shown) [Example 61, 10-(3-fluorophenyl)-1,2,3,4,4a,5-hexahydropyrazino[1,2-a][1,5]benzodiazepin-6(7H)-one], the EC50 at 5HT2B receptors (setting [3]) was greater than 10 µM; at 5HT2C receptors (setting [4]), 0.1 µM. Moreover, the Emax on 5HT2C receptors (setting [5]) is greater than 120%.

For the compound `FCCN1CCN2c3cccc(F)c3OCC[C@H]2C1` [Example 245, (4aS)-8-fluoro-3-(2-fluoroethyl)-2,3,4,4a,5,6-hexahydro-1H-pyrazino[2,1-d][1,5]benzoxazepine], the maximal effect (Emax) was 20% on 5HT2B receptors (setting [2]) and 95% at 5HT2C receptors (setting [6]). Moreover, the EC50 was 0.2 µM at 5HT2B receptors (setting [3]) and 0.009 µM at 5HT2C receptors (setting [4]).

Take `Nc1ccc2c(c1)OCC[C@H]1CNCCN21` [Example 135, (4aS)-2,3,4,4a,5,6-hexahydro-1H-pyrazino[2,1-d][1,5]benzoxazepin-9-amine]: the EC50 is greater than 10 µM on 5HT2B receptors (setting [3]) and 1 µM on 5HT2C receptors (setting [4]). Besides, the Emax on 5HT2C receptors (setting [1]) is 80%.

For `c1cncc(-c2cccc3c2OCC[C@H]2CNCCN32)c1` [Example 248, (4aS)-8-(pyridin-3-yl)-2,3,4,4a,5,6-hexahydro-1H-pyrazino[2,1-d][1,5]benzoxazepine], the results for the EC50 at 5HT2B receptors and on 5HT2C receptors were greater than 10 µM and 0.0007 µM, respectively. For the same compound, the maximum response (Emax) at 5HT2C receptors (setting [1]) amounted to 85%.

In the case of `CS(=O)(=O)c1ccccc1-c1ccc2c(c1)N1CCNC[C@@H]1CCO2` [Example 195, (4aS)-10-[2-(methylsulfonyl)phenyl]-2,3,4,4a,5,6-hexahydro-1H-pyrazino[2,1-d][1,5]benzoxazepine], the EC50 at 5HT2B receptors (setting [3]) came to 0.3 µM; on 5HT2C receptors (setting [4]) it was 0.007 µM. Further, the Emax at 5HT2B receptors (setting [7]) is 55%; at 5HT2C receptors (setting [5]) it was greater than 120%.

For `Clc1ccc2c(c1)N1CCNC[C@H]1CCO2` [Example 261, (4aR)-10-chloro-2,3,4,4a,5,6-hexahydro-1H-pyrazino[2,1-d][1,5]benzoxazepine], the half-maximal effective concentration (EC50) is 0.03 µM on 5HT2B receptors and 0.0004 µM on 5HT2C receptors. For the same compound, the values for the Emax at 5HT2B receptors (setting [2]) and at 5HT2C receptors (setting [1]) were 70% and 90%, respectively.

For the compound `CS(=O)(=O)c1cccc(-c2ccc3c(c2)N2CCNC[C@@H]2CCO3)c1` [Example 196, (4aS)-10-[3-(methylsulfonyl)phenyl]-2,3,4,4a,5,6-hexahydro-1H-pyrazino[2,1-d][1,5]benzoxazepine], the EC50 at 5HT2B receptors (setting [3]) was greater than 10 µM; on 5HT2C receptors (setting [4]) it was 0.009 µM. Also, the Emax at 5HT2C receptors (setting [5]) is greater than 120%.

Turning to `Cc1c(F)ccc2c1OCC[C@H]1CNCCN21` [Example 244], the EC50 at 5HT2B receptors worked out at 0.03 µM; on 5HT2C receptors, 0.0004 µM. The Emax on 5HT2B receptors (setting [2]) amounted to 15%; at 5HT2C receptors (setting [1]), 95%.

As for `Fc1cccc2c1N1CCNC[C@@H]1CCO2` [Example 272, (4aS)-11-fluoro-2,3,4,4a,5,6-hexahydro-1H-pyrazino[2,1-d][1,5]benzoxazepine], the results for the EC50 at 5HT2B receptors and on 5HT2C receptors were 0.05 µM and 0.005 µM, respectively. For the same compound, the maximal effect (Emax) was determined as 30% at 5HT2B receptors (setting [2]) and 85% on 5HT2C receptors (setting [1]).

For `Cc1cccc2c1OCC[C@H]1CN(CCF)CCN21` [Example 246, (4aS)-3-(2-fluoroethyl)-8-methyl-2,3,4,4a,5,6-hexahydro-1H-pyrazino[2,1-d][1,5]benzoxazepine], the results for the EC50 at 5HT2B receptors (setting [3]) and at 5HT2C receptors (setting [4]) were greater than 10 µM and 0.007 µM, respectively. The Emax at 5HT2C receptors (setting [6]) is 95%.

Regarding `COc1ccc(-c2ccc3c(c2)N2CCNC[C@@H]2CCO3)cc1` [Example 194, (4aS)-10-(4-methoxyphenyl)-2,3,4,4a,5,6-hexahydro-1H-pyrazino[2,1-d][1,5]benzoxazepine], the EC50 was greater than 10 µM on 5HT2B receptors (setting [3]) and 0.4 µM at 5HT2C receptors (setting [4]). Moreover, the Emax at 5HT2C receptors (setting [5]) is greater than 120%.

As to `CN1CCN2c3ccccc3OCC[C@@H]2C1` [Example 268, (4aR)-3-methyl-2,3,4,4a,5,6-hexahydro-1H-pyrazino[2,1-d][1,5]benzoxazepine], the EC50 on 5HT2B receptors amounted to 0.2 µM; on 5HT2C receptors, 0.01 µM. Besides, the Emax stood at 50% at 5HT2B receptors (setting [2]) and 95% on 5HT2C receptors (setting [1]).

Turning to `O=C1C[C@H]2CNCCN2c2cc(OCCc3cccc(C(F)(F)F)c3)ccc2N1` [Example 173, (4aS)-10-{2-[3-(trifluoromethyl)phenyl]ethoxy}-1,2,3,4,4a,5-hexahydropyrazino[1,2-a][1,5]benzodiazepin-6(7H)-one], the EC50 at 5HT2B receptors (setting [3]) is greater than 10 µM; at 5HT2C receptors (setting [4]), 0.004 µM. Also, the Emax on 5HT2C receptors (setting [5]) came out at 110%.

For `Oc1cccc(-c2ccc3c(c2)N2CCNC[C@@H]2CCO3)c1` [Example 201, 3-[(4aS)-2,3,4,4a,5,6-hexahydro-1H-pyrazino[2,1-d][1,5]benzoxazepin-10-yl]phenol], the EC50 is greater than 10 µM at 5HT2B receptors (setting [3]) and 0.2 µM on 5HT2C receptors (setting [4]). At 5HT2C receptors (setting [5]), the maximum response (Emax) was greater than 120%.

As for `CC(O)c1ccc(-c2ccc3c(c2)OCC[C@H]2CNCCN32)cc1` (stereo partly drawn) [Example 228, 1-{4-[(4aS)-2,3,4,4a,5,6-hexahydro-1H-pyrazino[2,1-d][1,5]benzoxazepin-9-yl]phenyl}ethanol], the EC50 at 5HT2B receptors (setting [3]) is greater than 10 µM; on 5HT2C receptors (setting [4]), 0.009 µM. On 5HT2C receptors (setting [5]), the Emax was 100%.

Take `O=C1CC2CNCCN2c2cc(-c3ccc(F)cc3)ccc2N1` (stereo not shown) [Example 74, 10-(4-fluorophenyl)-1,2,3,4,4a,5-hexahydropyrazino[1,2-a][1,5]benzodiazepin-6(7H)-one]: the EC50 at 5HT2B receptors (setting [3]) is greater than 10 µM; at 5HT2C receptors (setting [4]), 0.07 µM. For the same compound, the maximal response (Emax) at 5HT2C receptors (setting [5]) was 100%.

`Oc1ccc(-c2ccc3c(c2)N2CCNC[C@@H]2CCO3)cc1` [Example 202, 4-[(4aS)-2,3,4,4a,5,6-hexahydro-1H-pyrazino[2,1-d][1,5]benzoxazepin-10-yl]phenol]: the concentration giving a half-maximal response (EC50) on 5HT2B receptors (setting [3]) was found to be 1 µM; on 5HT2C receptors (setting [4]), 0.005 µM. Moreover, the Emax at 5HT2B receptors (setting [7]) was 15%; at 5HT2C receptors (setting [5]), greater than 120%.

Regarding `c1ccc2c(c1)CCCC1CNCCN21` (stereo not shown) [Example 182, 1,2,3,4,4a,5,6,7-octahydropyrazino[1,2-a][1]benzazepine], the EC50 came out at 0.1 µM at 5HT2B receptors and 0.007 µM at 5HT2C receptors. In addition, the Emax was 40% at 5HT2B receptors (setting [2]) and greater than 120% at 5HT2C receptors (setting [1]).

As for `COc1ccc(-c2ccc3c(c2)N2CCNCC2CC(=O)N3)cc1` (stereo not shown) [Example 58, 10-(4-methoxyphenyl)-1,2,3,4,4a,5-hexahydropyrazino[1,2-a][1,5]benzodiazepin-6(7H)-one], the EC50 at 5HT2B receptors (setting [3]) was greater than 10 µM; at 5HT2C receptors (setting [4]), 0.2 µM. Moreover, the Emax at 5HT2C receptors (setting [5]) is 110%.

For the compound `C[C@@H](Cc1ccccc1)Oc1ccc2c(c1)N1CCNCC1CC(=O)N2` (stereo partly drawn) [Example 160, 10-{[(2S)-1-phenylpropan-2-yl]oxy}-1,2,3,4,4a,5-hexahydropyrazino[1,2-a][1,5]benzodiazepin-6(7H)-one], the EC50 on 5HT2B receptors (setting [3]) was greater than 10 µM; at 5HT2C receptors (setting [4]) it was 0.0797 µM. In addition, the Emax at 5HT2C receptors (setting [5]) was greater than 120%.
